ChEMBL document CHEMBL1201862, “PubChem BioAssay data set” (2004)
The source made the active and inactive calls. For most assays here, no stated cut-off is given here; in the data, actives have a measured EC50 and inactives only a lower limit.

Legend:
[1] = biological target: T1, Protein RecA (Mycobacterium tuberculosis, UniProt P9WHJ3); assay: Fluorescence Cell-Free Homogeneous Dose Retest to Identify Inhibitors of RecA-Intein Splicing Activity. [Related pubchem assays (depositor defined):AID2097, AID2223, AID489010, AID492950]; assay type: functional
T1 sequence (P9WHJ3 whole entry): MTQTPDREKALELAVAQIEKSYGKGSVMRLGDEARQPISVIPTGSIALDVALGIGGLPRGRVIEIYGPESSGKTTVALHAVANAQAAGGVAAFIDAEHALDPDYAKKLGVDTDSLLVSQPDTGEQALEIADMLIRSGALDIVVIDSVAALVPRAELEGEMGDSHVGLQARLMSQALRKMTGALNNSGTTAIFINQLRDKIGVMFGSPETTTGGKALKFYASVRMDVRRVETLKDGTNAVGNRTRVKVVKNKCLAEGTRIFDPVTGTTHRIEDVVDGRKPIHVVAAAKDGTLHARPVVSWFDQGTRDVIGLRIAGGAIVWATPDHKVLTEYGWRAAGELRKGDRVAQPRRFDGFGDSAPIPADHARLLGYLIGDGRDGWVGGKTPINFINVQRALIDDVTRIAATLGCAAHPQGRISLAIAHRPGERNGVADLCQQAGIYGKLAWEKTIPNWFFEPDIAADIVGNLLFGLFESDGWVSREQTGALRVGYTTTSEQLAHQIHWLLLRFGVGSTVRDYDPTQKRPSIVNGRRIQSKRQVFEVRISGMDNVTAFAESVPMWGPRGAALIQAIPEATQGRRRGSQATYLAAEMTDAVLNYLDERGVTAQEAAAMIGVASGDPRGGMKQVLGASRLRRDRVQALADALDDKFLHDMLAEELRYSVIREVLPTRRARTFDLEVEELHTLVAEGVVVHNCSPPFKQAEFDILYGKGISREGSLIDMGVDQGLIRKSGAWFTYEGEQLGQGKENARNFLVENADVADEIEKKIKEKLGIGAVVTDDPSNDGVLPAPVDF

[2] = biological target: T2, Calpain-2 catalytic subunit (Sus scrofa, UniProt P43367); assay: m-calpain protease blockers, concentration series – biochemical, fluorogenic peptide substrate, dose response (AID 1420); assay type: functional
T2 sequence (P43367 whole entry): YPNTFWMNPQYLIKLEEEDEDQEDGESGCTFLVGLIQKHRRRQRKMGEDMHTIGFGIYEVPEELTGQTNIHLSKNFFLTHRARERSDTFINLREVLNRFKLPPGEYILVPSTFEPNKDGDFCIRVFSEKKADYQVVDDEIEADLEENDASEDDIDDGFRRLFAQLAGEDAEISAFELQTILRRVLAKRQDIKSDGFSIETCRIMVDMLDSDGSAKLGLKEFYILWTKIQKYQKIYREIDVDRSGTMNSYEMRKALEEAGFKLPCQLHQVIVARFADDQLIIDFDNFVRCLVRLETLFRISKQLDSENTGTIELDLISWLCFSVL

[3] = system: BJ; assay: growth inhibition of engineered Ras-driven BJ cells – cell-based, alamar blue fluorescence, cherrypicked samples, dose response (AID 2631); assay type: functional; conditions: Homo sapiens;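 further: confirmatory dose-response assay in RAS-dependent BJ fibroblasts engineered with TERT, LT and ST, with cytotoxicity read by fluorescence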
[4] = system: BJ; assay: BJ-TERT fibroblast viability loss – cell-based, RAS-independent, luminescence, dose response (AID 1933); assay type: functional; conditions: Homo sapiens
[5] = system: BJ; assay: cells; assay type: functional, cell-based; conditions: Homo sapiens
[6] = DRD fibroblast viability loss – cell-based, non-viral oncogenic, luminescence, dose response (AID 1934); assay type: functional; conditions: Homo sapiens
[7] = Intein inhibitors as potential Tuberculosis drugs, a cytotoxicity screen. [Related pubchem assays (depositor defined):AID2221, AID2223, AID434968, AID435010, AID449749, AID449750, AID489010]; assay type: functional
[8] = system: BJ; assay: BJ-TERT-LT-ST fibroblast viability loss – cell-based, RAS-independent, luminescence, dose response (AID 1935); assay type: functional; conditions: Homo sapiens;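 further: BJ fibroblasts immortalized with TERT plus LT and ST oncogenes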
[9] = biological target: T3, Replicative DNA helicase DnaB (Mycobacterium tuberculosis, UniProt P9WMR3); assay: DnaB intein splicing inhibitors, dose response, biochemical, cell-free fluorescence (AID 449749); assay type: functional
T3 sequence (P9WMR3 whole entry): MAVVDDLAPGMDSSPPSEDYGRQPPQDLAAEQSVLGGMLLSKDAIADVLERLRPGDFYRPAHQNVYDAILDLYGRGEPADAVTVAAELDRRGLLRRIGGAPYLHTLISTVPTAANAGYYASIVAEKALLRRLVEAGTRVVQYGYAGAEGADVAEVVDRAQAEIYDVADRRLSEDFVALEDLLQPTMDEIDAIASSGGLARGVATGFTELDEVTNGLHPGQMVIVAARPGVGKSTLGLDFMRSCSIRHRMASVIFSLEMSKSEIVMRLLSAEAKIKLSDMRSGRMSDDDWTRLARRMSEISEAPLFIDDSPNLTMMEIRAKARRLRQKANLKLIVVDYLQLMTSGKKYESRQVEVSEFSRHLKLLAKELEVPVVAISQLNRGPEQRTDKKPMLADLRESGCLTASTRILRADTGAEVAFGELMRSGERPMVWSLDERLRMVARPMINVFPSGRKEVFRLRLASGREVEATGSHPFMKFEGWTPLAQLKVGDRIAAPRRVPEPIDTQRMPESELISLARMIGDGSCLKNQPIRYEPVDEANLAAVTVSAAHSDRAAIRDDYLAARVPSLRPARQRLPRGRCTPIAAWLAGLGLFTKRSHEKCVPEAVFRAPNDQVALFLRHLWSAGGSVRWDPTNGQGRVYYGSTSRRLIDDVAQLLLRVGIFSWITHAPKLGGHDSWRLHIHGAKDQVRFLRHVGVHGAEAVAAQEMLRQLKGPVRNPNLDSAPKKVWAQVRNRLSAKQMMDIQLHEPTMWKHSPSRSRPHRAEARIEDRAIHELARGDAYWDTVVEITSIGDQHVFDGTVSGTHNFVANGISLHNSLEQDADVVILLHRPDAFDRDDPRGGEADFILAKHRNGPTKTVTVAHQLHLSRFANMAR

[10] = biological target: T4, Coagulation factor XII (Homo sapiens, UniProt P00748); assay: Factor XIIa Dose Response Confirmation from Single Well HTS. [Related pubchem assays (depositor defined):AID701]; assay type: functional
T4 sequence (P00748 whole entry): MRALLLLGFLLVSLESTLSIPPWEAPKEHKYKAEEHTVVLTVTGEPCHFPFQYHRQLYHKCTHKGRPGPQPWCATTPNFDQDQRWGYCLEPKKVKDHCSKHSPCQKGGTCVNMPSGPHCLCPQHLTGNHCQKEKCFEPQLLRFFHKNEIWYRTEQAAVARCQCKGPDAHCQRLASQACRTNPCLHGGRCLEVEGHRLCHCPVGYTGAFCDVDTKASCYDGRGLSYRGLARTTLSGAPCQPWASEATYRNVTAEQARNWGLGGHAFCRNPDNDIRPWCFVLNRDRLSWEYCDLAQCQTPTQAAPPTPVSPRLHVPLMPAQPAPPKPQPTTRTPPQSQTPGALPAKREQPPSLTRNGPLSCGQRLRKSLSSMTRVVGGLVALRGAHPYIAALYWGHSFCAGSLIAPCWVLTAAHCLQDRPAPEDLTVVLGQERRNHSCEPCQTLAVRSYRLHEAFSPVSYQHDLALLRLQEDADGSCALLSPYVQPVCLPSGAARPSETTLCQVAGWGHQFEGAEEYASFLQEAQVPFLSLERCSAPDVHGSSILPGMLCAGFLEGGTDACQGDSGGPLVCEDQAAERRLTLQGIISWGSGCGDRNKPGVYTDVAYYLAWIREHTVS

[11] = biological target: Peroxisome proliferator-activated receptor gamma (Homo sapiens, UniProt P37231); assay: PPARg transcriptional activation, reporter cells – cell-based, luminescence, assay provider, dose response (AID 504447); assay type: functional
[12] = biological target: Mucolipin-3 (Homo sapiens, UniProt Q8TDD5); assay: Fluorescence counterscreen assay for […] agonists: dose response cell-based high-throughput screening assay to identify agonists of the transient receptor potential channel ML3 (TRPML3). [Related pubchem assays: 1424, 1448 ]; assay type: functional
[13] = biological target: T5, Zinc finger protein mex-5 (Caenorhabditis elegans, UniProt Q9XUB2); assay: potency of MEX-5 RNA-binding blockers – biochemical, C. elegans, fluorescence polarization, dose response (AID 1960)
T5 sequence (Q9XUB2 whole entry): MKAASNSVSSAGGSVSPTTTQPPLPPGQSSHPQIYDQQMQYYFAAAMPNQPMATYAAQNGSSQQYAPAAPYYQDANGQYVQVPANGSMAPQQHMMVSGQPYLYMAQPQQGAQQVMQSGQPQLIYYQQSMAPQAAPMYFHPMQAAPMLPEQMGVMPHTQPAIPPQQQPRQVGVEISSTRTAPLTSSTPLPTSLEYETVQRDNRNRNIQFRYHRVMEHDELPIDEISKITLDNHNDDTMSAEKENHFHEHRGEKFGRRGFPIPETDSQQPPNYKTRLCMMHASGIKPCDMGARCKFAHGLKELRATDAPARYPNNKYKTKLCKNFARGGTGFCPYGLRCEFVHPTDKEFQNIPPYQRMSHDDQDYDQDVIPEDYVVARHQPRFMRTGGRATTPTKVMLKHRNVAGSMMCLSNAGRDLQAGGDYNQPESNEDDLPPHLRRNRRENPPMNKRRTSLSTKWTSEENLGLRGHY

[14] = biological target: Ion channel NompC (Danio rerio, UniProt Q7T1G6); assay: Dose response cell-based high-throughput screening assay for agonists of the transient receptor potential channel N1 (TRPN1). [Related pubchem assays (depositor defined):AID1424, AID1448]; assay type: functional
[15] = biological target: T6, RNA-binding protein pos-1 (Caenorhabditis elegans, UniProt G5EF15); assay: disruptors of C. elegans POS-1 RNA interaction – biochemical, fluorescence polarization, dose response (AID 1964);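 further: purified POS-1 fused to maltose binding protein made in E. coli; potency of compounds blocking POS-1 binding to fluorescent RNA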
T6 sequence (G5EF15 whole entry): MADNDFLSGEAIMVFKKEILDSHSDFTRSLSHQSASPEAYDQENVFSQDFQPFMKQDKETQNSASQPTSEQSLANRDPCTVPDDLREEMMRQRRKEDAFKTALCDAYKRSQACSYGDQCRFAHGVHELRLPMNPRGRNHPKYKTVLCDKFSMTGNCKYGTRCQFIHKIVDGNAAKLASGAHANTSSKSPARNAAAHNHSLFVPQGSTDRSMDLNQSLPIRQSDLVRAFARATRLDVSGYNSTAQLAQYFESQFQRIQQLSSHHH
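Wherever CC50 is given: cells exposed to compound for 72 hours before luminescence readout.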

Sequence of Ion channel NompC (Q7T1G6 whole entry, the tested form may be a part): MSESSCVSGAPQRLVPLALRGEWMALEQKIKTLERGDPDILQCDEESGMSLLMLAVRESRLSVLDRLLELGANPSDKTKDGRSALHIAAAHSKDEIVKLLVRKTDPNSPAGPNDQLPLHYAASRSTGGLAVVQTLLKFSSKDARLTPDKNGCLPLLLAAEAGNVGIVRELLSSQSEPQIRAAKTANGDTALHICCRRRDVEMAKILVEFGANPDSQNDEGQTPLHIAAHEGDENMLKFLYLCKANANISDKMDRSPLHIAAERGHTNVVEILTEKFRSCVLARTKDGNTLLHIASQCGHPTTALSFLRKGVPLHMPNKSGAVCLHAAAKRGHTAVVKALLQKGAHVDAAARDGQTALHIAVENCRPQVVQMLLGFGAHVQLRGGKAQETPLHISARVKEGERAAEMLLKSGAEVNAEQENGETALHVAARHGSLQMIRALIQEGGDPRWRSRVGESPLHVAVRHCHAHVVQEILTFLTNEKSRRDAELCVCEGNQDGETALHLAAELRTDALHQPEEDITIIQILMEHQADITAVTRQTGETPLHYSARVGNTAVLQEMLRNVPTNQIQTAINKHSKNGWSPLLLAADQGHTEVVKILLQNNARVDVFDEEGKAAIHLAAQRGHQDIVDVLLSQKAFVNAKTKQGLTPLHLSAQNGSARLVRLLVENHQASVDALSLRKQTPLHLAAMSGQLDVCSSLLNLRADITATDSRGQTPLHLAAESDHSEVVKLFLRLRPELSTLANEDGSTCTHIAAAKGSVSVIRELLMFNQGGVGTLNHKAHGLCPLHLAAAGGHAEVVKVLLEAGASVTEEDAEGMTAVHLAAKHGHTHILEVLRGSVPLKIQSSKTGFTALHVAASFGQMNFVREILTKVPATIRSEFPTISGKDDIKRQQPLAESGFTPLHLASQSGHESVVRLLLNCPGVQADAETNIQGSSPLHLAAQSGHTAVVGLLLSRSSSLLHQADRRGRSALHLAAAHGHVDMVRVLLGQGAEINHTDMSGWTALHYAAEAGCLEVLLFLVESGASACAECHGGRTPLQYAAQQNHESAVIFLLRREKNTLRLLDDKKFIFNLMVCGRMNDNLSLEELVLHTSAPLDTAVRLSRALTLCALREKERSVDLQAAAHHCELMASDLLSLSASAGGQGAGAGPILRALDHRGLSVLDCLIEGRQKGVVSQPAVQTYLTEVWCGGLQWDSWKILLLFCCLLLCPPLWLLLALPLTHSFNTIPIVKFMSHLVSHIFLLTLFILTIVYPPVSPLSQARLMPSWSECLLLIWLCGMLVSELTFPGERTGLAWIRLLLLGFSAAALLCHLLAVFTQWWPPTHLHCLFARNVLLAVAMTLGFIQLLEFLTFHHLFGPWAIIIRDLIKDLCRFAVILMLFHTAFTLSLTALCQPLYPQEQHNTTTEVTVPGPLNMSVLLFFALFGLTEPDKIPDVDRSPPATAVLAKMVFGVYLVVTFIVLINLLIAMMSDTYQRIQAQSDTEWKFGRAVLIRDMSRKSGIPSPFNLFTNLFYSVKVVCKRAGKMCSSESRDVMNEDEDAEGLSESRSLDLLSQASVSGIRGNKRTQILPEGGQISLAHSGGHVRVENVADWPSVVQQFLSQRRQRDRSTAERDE
Sequence of Peroxisome proliferator-activated receptor gamma (P37231 whole entry): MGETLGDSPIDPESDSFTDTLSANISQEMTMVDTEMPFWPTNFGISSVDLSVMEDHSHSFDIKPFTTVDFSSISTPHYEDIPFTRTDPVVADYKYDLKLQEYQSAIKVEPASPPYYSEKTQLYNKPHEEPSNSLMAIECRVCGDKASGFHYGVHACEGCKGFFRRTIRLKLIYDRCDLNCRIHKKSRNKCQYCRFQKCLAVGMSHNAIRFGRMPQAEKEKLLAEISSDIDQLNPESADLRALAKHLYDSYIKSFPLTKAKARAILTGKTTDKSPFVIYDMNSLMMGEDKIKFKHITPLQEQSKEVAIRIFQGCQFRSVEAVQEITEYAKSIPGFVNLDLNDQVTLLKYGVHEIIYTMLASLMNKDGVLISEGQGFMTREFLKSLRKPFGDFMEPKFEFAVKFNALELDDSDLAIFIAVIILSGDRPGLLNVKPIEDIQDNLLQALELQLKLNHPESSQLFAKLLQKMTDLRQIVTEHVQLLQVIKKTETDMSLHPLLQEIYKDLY
Sequence of Mucolipin-3 (Q8TDD5 whole entry): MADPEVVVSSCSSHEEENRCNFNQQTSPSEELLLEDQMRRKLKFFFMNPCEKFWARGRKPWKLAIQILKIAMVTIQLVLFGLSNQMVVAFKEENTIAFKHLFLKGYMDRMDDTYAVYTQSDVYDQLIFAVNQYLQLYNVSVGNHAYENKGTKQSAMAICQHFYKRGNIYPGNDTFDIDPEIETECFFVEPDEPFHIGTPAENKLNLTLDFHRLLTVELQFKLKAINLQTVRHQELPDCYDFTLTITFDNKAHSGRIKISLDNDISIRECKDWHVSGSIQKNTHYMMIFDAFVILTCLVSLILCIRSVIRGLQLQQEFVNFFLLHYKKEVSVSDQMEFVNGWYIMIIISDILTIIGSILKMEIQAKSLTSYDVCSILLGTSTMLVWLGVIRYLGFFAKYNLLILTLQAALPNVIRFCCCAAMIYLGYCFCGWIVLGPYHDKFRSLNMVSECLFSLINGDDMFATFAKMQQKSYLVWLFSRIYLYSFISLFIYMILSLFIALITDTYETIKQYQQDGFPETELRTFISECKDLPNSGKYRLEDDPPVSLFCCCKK

Compound: Cc1ccc(N(C(=O)CCl)C(C(=O)NC2CCCCC2)c2cccnc2)cc1C (stereo not given)
- EC50 [1]: 0.339 µM (active)
- IC50 [2]: 34.7 µM (not active)
- EC50 [3]: 0.147 µM (active)
- EC50 [4]: 0.171 µM (inconclusive)
- EC50 [5]: 1.25 µM (active)
- EC50 [6]: 0.413 µM (active)
- CC50 [7]: 0.1 µM (active)
- EC50 [8]: 3.95 µM (active)
- AC50 [9]: 2.3 µM (active)

Compound: Cc1ccccc1CNCc1cccnc1
- IC50 [10]: > 50 µM (inactive)

Compound: COc1ccc2c(c1)c(=O)c(C(=O)c1ccc(C)cc1)cn2CC(=O)Nc1ccc(F)cc1
- EC50 [11]: 14 µM (active)

Compound: CN1C(=O)C(=Cc2sc(=O)n(-c3ccccc3)c2N2CCCCC2)C(=O)N(C)C1=O
- EC50 [12]: 10.7 µM (not active)
- EC50 [13]: 19.9 µM (inconclusive)
- EC50 [14]: > 3.32 µM (inactive)
- EC50 [15]: 4.56 µM (inconclusive)
